Test results as given in patent publication US6200762A, “Photon reducing agents and compositions for fluorescence assays” (Aurora Biosciences Corporation, priority 1998, dated 2001).
Counter-ions that a name gives are not always drawn. Values belong to the compound of their own block, whether it stands above or below them.

How the values were obtained:
[1] = Effect of 50% methanol on coumarin fluorescence and phenol red absorbance (dye stacking); format: physicochemical
Experimental: To further investigate the ability of a photon reducing agent to reduce fluorescence of a solution, fluorescence of a dye in the presence of a photon reducing agent was monitored in the presence and absence of methanol.
[…] A 10 μM solution of 6-chloro-7-hydroxy coumarin-3-carboxylate was prepared in 39 mM phosphate buffer pH 7.5 and in a 1:1 mixture of same phosphate buffer and methanol. 1% (vol/vol) of a 100 mM aqueous Phenol Red stock solution was added to the solutions.
The presence of methanol increased fluorescence compared to an all aqueous buffer.

[2] = Absorption maxima of dyes; format: physicochemical; details: for Absorption maximum: main value
[3] = Reduction of front face fluorescence of a coumarin solution by 1 mM phenol red; details: 0.5 μM coumarin, phosphate buffer pH 7.5 / 50% methanol
Experimental: To investigate the ability of a photon reducing agent to reduce fluorescence of a solution, emission of a fluorophore from a sample was monitored in the presence and absence of a photon reducing agent.
Fluorescence from a solution of a blue fluorescent dye, 6-chloro-7-hydroxy coumarin 3-carboxylate, was determined in the presence and absence of a 1 mM phenol red as the photon reducing agent. A solution of 0.5 μM 6-chloro-7-hydroxy coumarin-3-carboxylate in solvent containing 50% (vol/vol) aqueous 39 mM phosphate buffer pH 7.5 and 50% (vol/vol) methanol was prepared. After taking a front face fluorescence spectrum of this solution on a Spex Fluorolog 2, 1% (vol/vol) of a 100 mM aqueous Phenol Red stock solution was added and another spectrum taken. Front face fluorescence refers to exciting the sample at a right angle to the sample surface and collecting emitted light (for example, from the excited region or emission region) at 12.5 degrees from such angle of excitation.

[4] = Reduction of coumarin fluorescence as a function of path length; details: 10 μM coumarin + 1 mM phenol red, capillary
Experimental: To further investigate the ability of photon reducing agents to reduce fluorescence emitted from a solution, fluorescence emitted from a solution containing a fluorophore in the presence of a photon reducing agent was monitored as a function sample thickness.
A photon reducing agent, phenol red, was tested with a fluorophore, coumarin, as a function of sample thickness (path length). The experiment was conducted using a microscope equipped with epifluorescence. The liquid samples were drawn into low fluorescence capillary tubes of fixed path length (Vitro Dynamics, Rockaway N.J.) as indicated in the graphs. The following samples were evaluated:
1) 10 μM coumarin (diamonds)
2) 10 μM coumarin+1 mM phenol red (squares)
3) 10 μM coumarin+5% (vol/vol) Schilling Red (triangles).
The samples were excited using a 405/20 filter via a 425 dichroic reflector through a 20× objective (Zeiss 20×Fluar). Emitted light was filtered through a 460/50 filter and detected by an intensified CCD camera (Stanford Photonics, Menlo Park, Calif.). The detector output was converted to a 512×512 pixel eight-bit digital image. The data reflect the average intensity within a 20×20 pixel area within the capillary. The background intensity of the field was subtracted from all values.

[5] = pH 7.15
[6] = Reduction of solution fluorescence using non-dye quenchers and particulates; details: 10 μM coumarin, pH 7.5

Compound: CC(=O)Nc1ccc(N=Nc2c(N)ccc3cc(S(=O)(=O)[O-])cc(O)c23)c(S(=O)(=O)[O-])c1.[Na+].[Na+] [Acid Red 37]
Absorption maximum [2]: 513 nm

Compound: [Cl][Ni][Cl] [nickel (II) salts, nickel (II) chloride]
concentration at which coumarin fluorescence can be reduced [5]: low millimolar range

Compound: NCCN(CCN)CCN [tris(2-aminoethyl)amine]
concentration typically required (collisional quenchers) [6]: higher than 100 mM

Now from value to compound, other results behind:

increase of fluorescence by 50% methanol buffer ([1]; in the absence of a photon reducing agent): about 30%
Compound: O=C(O)c1cc2cc(Cl)c(O)cc2oc1=O [6-chloro-7-hydroxy coumarin-3-carboxylate]

decrease of absorbance by 50% methanol buffer ([1]; at the emission wavelength of the coumarin): about 20%
Absorption maximum [2]: 557 nm
Absorption maximum (second value, in parentheses) ([2]; value in parentheses): 423 nm
Compound: O=S1(=O)OC(c2ccc(O)cc2)(c2ccc(O)cc2)c2ccccc21 [Phenol Red]
reduction of front face fluorescence [3]: 70 fold
attenuation of coumarin fluorescence [4]: significantly attenuated

Absorption maximum [2]: 425 nm
Compound: O=C(O)c1nn(-c2ccc(S(=O)(=O)O)cc2)c(O)c1N=Nc1ccc(S(=O)(=O)O)cc1 [Tartrazine]

Absorption maximum [2]: 607 nm
Compound: Cc1cc(-c2ccc(/N=N/c3c(S(=O)(=O)O)cc4cc(S(=O)(=O)O)cc(N)c4c3O)c(C)c2)ccc1/N=N/c1c(S(=O)(=O)O)cc2cc(S(=O)(=O)O)cc(N)c2c1O [Trypan Blue]
